The test system of assay [1] is SH-SY5Y cells (neuroblastoma). As to the kind of experiment: MTT cytotoxicity test, SH-SY5Y. Type of assay: cell-based. The conditions noted are these: Homo sapiens, SH-SY5Y; MTT test; 24 h incubation per text, 48 h per method. In short, it runs like this:
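Cells seeded at 5 × 10^3 per well and grown at 37 °C to monolayer, then exposed to compounds for 48 h. Viability by MTT (0.5 mg/mL, serum-free medium, 4 h, 37 °C), formazan dissolved in DMSO, OD 540 nm. IC50 estimated from triplicate experiments.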

Assay [2] deals with Chang liver cells (human liver cells, normal cell line). Put plainly: MTT cytotoxicity test, Chang liver normal cells. It counts as cell-based. The conditions noted are these: 48 h incubation. The text has this: For the experiments, we used tumor cell cultures M-HeLa clone 11 (epithelioid carcinoma of the cervix, subline HeLa., clone M-HeLa), HuTu 80 (human duodenal adenocarcinoma) and MCF7 (human breast adenocarcinoma (pleural fluid)) from the collection of the Institute of Cytology, Russian Academy of Sciences (St. Petersburg); human liver cells (Chang liver) from the collection of the Research Institute of Virology at the Russian Academy of Medical Sciences (Moscow); and SH-SY5Y (neuroblastoma)from the Laboratory of Tumor Cell Genetics at the Scientific Research Institute of Carcinogenesis N.N. Blokhin National Medical Research Center of Oncology.
The cytotoxic effect on cells was determined using the colorimetric method of cell proliferation—the MTT test. NADP-H-dependent cellular oxidoreductase enzymes can, under certain conditions, reflect the number of viable cells. These enzymes are able to reduce the tetrazolium dye (MTT)-3-(4,5-dimethylthiazol-2-yl)-2,5-diphenyl-tetrazolium bromide to insoluble blue-violet formazan, which crystallizes inside the cell. The amount of formazan formed is proportional to the number of cells with active metabolism.
Cells were seeded on a 96-well Nunc plate at a concentration of 5 × 10^3 cells per well in a volume of 100 μL of medium and cultured in a CO2 incubator at 37 °C until a monolayer was formed. […] After 48 h, the nutrient medium was removed from the plates and 100 µL of the nutrient medium without serum with MTT at a concentration of 0.5 mg/mL was added and incubated for 4 h at 37 °C. Formazan crystals were […] 100 µL of DMSO in each well. Optical density was recorded at 540 nm on an in vitro logic microplate reader (Russia). The experiments for all compounds were repeated in triplicate.
IC50 values were estimated using the Quest Graph IC50 Calculator (AAT Bioquest, Inc., Sunnyvale, CA, USA) (Version 2022) (accessed on 25 June 2022).
For orientation: Tetrazolium assays rely on reduction of a dye to a coloured formazan, in cell work by metabolically active cells.

A short description of another assay: DPPH antiradical assay. The conditions noted are these: DPPH 100 μM. As to the method:
Figure 4 Antioxidant potential of the tested compounds. (a) Inhibition of lipid peroxidation (LPO) in rat brain homogenates (2 mg/mL) initiated by Fe(II) ions (concentration of 500 µM) in the tested compounds at a concentration of 100 µM. (b) Concentration dependences of LPO inhibition for the studied compounds in the concentration range from 1 µM to 100 µM. (c) Oxygen Radical Absorbance Capacity (ORAC) of the studied compounds and ORAC values expressed as Trolox equivalent (TE). (d) DPPH antiradical activity of the compounds under study and DPPH values expressed as TE. The concentration of studied compounds and Trolox was 100 µM, the concentration of DPPH was 100 μM, and the concentration of AAPH was […]. Statistical significance was assessed using one-way ANOVA and Dunnett’s multiple comparison tests, where **** p < 0.0001, *** p < 0.001 and ** p < 0.01 vs. control. […]
(In general: DPPH is a stable violet radical that fades when it is reduced.)

Turning to `CCOP(=O)(OCC)C(c1cc(C(C)(C)C)c(O)c(C(C)(C)C)c1)c1ccc(NC(=O)Nc2ccc([N+](=O)[O-])cc2)cc1NC(=O)Nc1ccc([N+](=O)[O-])cc1` (stereo not shown) [17b], the 50% inhibitory concentration (IC50) (usually the concentration needed to halve the response being measured) in assay [1] turned out to be 54.8 ± 2.1 µM; in assay [2], 74 ± 5.9 µM. Besides, in “DPPH antiradical assay” (compound 100 µM), the DPPH antiradical activity came to 64.8 ± 0.7%. In addition, the “DPPH value (Trolox equivalent)” value in the assay “DPPH antiradical assay” (compounds and Trolox 100 µM) turned out to be 1.27 Trolox equivalent.

These data come from article PMC10454409, “Hybrids of Sterically Hindered Phenols and Diaryl Ureas: Synthesis, Switch from Antioxidant Activity to ROS Generation and Induction of Apoptosis” (International Journal of Molecular Sciences, 2023).
